Assay results reported in paper PMC9283466, “In silico identification of two peptides with antibacterial activity against multidrug-resistant Staphylococcus aureus” (NPJ Biofilms and Microbiomes, 2022).
In brackets after ≈: the same amount, converted by molar mass. Bridge positions count the residues as written; N and C are the ends. Peptide text beside a SMILES is read from it.

What was measured:
[1] = system: MRSA USA300 infection in G. mellonella; assay: In vivo efficacy, G. mellonella MRSA USA300 infection model; parameters: species or system Galleria mellonella; conditions: MRSA USA300 LD; for survival rate higher than the control group: peptides at 1x MIC; for increase in survival versus untreated control group / survival rate: peptides at 3x MIC
Description: All procedures of larvae rearing, injection and G. mellonella killing assays were conducted using validated methods. In each assay, ten larvae weighing between 280–300 mg each were randomly selected. Larvae with the previous melanisation of the cuticle were excluded from the experiments. All experiments were designed in at least four experimental and biological replicates.
To determine the LD50 and LD of S. aureus MRSA USA300 in G. mellonella, an inoculum of 10 µl of MRSA USA300 suspension in PBS 1X (10^3 to 10^6 CFU/larvae) was injected into the larvae haemocoel using insulin syringes (Becton Dickinson, USA). Larvae inoculated with PBS and larvae not inoculated were used as negative controls.
The efficacy of the peptides HG2 and HG4 to control MRSA USA300 infection in vivo, was evaluated following the protocol by ref. [43]. The groups of G. mellonella larvae were infected with the predetermined lethal dose of MRSA USA300. After 30 min of the larvae injection with the bacteria, the peptides were injected at 1x MIC and 3x MIC concentrations respectively. Larvae injected with PBS solution, and HG2 or HG4 peptide solution (1x MIC or 3x MIC) alone were used as negative controls. Injected larvae were maintained at 37 °C in the dark and their survival was monitored and analyzed as above.

[2] = system: Ent. faecalis JH2-2; assay: microbe, parasite or virus in culture; format: cell-based, Enterococcus faecalis
Description: (§1) To determine the antimicrobial activity of the new antimicrobial peptides, HG2 and HG4, their minimum inhibitory concentrations (MICs) were determined by broth microdilution method[51] in cation adjusted Mueller Hinton broth (MHB) following the International Organisation for Standardisation (ISO) 20776-1 standard for MIC testing using a final bacterial inoculum of 5 × 10^5 CFU/ml[52]. […] The peptides dissolved in sterile distilled water were added to bacteria culture and incubated overnight at appropriate conditions. The MICs of the peptides and comparator antibiotics were recorded after 18–24 h. The minimum bactericidal concentrations (MBCs) were also determined and were taken as the lowest concentration of the antimicrobial that prevented the growth of bacterial cells after the subculture of cells (from MIC treatment) onto antibiotic-free media.

[3] = system: Sal. typhimurium SL1344; assay: microbe, parasite or virus in culture; format: cell-based, Salmonella enterica serovar Typhimurium
Description: as §1

[4] = system: EMRA-15; assay: microbe, parasite or virus in culture; format: cell-based, Staphylococcus aureus
Outline: (§2)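 Broth microdilution in cation-adjusted Mueller Hinton broth per ISO 20776-1, with a final inoculum of 5 × 10^5 CFU/ml. Peptides dissolved in sterile distilled water were incubated with bacteria overnight, and MICs were recorded after 18–24 h. MBC was the lowest concentration preventing regrowth on subculture to antibiotic-free media.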

[5] = system: Ent. faecalis; assay: microbe, parasite or virus in culture; format: cell-based, Enterococcus faecalis; conditions: Ent. faecalis; Supplementary Table 5
Description: as §1

[6] = system: Sal. typhimurium; assay: microbe, parasite or virus in culture; format: cell-based, Salmonella enterica serovar Typhimurium; conditions: Sal. typhimurium; Supplementary Table 5
Description: as §1

[7] = system: List. monocytogenes; assay: microbe, parasite or virus in culture; format: cell-based, Listeria monocytogenes
Description: as §1

[8] = system: L. monocytogenes NCTC 11994; assay: microbe, parasite or virus in culture; format: cell-based, Listeria monocytogenes; conditions: NCTC 11994
Description: as §1

[9] = system: P. aeruginosa; assay: microbe, parasite or virus in culture; format: cell-based, Pseudomonas aeruginosa
Outline: as §2

Compound | survival rate higher than the control group [1] | increase in survival versus untreated control group [1] | survival rate [1] | MIC [2] | MIC [3] | Minimum inhibitory Concentrations MICs [4] | Minimum inhibitory Concentrations MICs [5] | Minimum inhibitory Concentrations MICs [6] | Minimum inhibitory Concentrations MICs [7] | MIC [8] | Minimum inhibitory Concentrations MICs [9]
CC[C@H](C)[C@H](NC(=O)[C@H](CC(C)C)NC(=O)[C@H](CC(C)C)NC(=O)[C@H](CC(C)C)NC(=O)[C@H](CCCCN)NC(=O)[C@H](CCCCN)NC(=O)[C@@H](N)CCSC)C(=O)N[C@@H](CC(C)C)C(=O)N[C@@H](Cc1ccccc1)C(=O)N[C@H]1CSSC[C@@H](C(=O)N[C@@H](CCCCN)C(=O)N[C@@H](CCCCN)C(=O)N[C@@H](C)C(=O)N2CCC[C@H]2C(N)=O)NC(=O)CNC(=O)[C@H](C)NC(=O)[C@H](CC(C)C)NC(=O)[C@H](C)NC(=O)[C@H](CC(C)C)NC(=O)[C@H](C)NC(=O)[C@H](CC(C)C)NC1=O [HG2] (H-MKKLLLILFCLALALAGCKKAP-NH2; disulfide 10-18; N-terminus assumed) | ~ 20% | 4.6 fold | 78% | 256 mg/L (≈ 109 µM) | 256 mg/L (≈ 109 µM) |  |  |  |  |  | 
CC[C@H](C)[C@H](NC(=O)[C@H](CC(C)C)NC(=O)[C@H](CC(C)C)NC(=O)[C@H](C)NC(=O)CNC(=O)CNC(=O)[C@@H](NC(=O)[C@@H](NC(=O)[C@H](CC(C)C)NC(=O)[C@H](C)NC(=O)[C@H](CC(C)C)NC(=O)CNC(=O)[C@H](CC(C)C)NC(=O)[C@@H](N)C(C)C)[C@@H](C)CC)C(C)C)C(=O)N[C@@H](CCCCN)C(=O)N[C@@H](CCCCN)C(=O)N[C@@H](CCCCN)C(=O)N[C@@H](CCC(N)=O)C(=O)N[C@@H](C)C(=O)N[C@@H](CCCCN)C(=O)N[C@@H](CO)C(N)=O [HG4] (H-VLGLALIVGGALLIKKKQAKS-NH2; N-terminus and C-terminus assumed) | ~ 20% | 4.4 fold | 75% |  |  | 32 µg/mL | 128 µg/mL | 512 µg/mL | 512 µg/mL | 512 mg/L (≈ 242 µM) | ≥ 1024 µg/mL
